Results as given in patent US8658357B2, “Orotate transporter encoding marker genes” (Novozymes A/S, priority 2004, dated 2014).

Assays:
[1] = tested on: L. lactis NCDO712 and MG1363; test: Screening for FOA sensitivity by streaking on SA-glucose plates with FOA; type: cell-based, Lactococcus lactis ssp. cremoris
Protocol: Lactococcal cultures were grown at 30° C. either in M17 broth (Terzaghi and Sandine, 1975) or in minimal SA-medium (Jensen and Hammer, 1993) supplemented with 0.5% and 1% glucose, respectively. E. coli strains were grown at 37° C. either in Luria-Bertani (LB) broth or in minimal ABTG medium (Clark and Maaløe, 1967). B. subtilis strains were grown at 37° C. either in LB medium or in minimal MM medium. Agar plates were made by adding […] agar to the broth medium. If necessary, the following supplements were added to the different media: orotate at 20 micro-g/ml, uracil at 20 micro-g/ml, 5-fluoroorotate (FOA) at 20 micro-g/ml, erythromycin at 5 micro-g/ml, chloramphenicol at 5 micro-g/ml for lactococci and 20 micro-g/ml for E. coli, ampicillin at 100 micro-g/ml.
QIAGEN™ purified plasmid DNA of pED210 and pCI3440 was introduced into competent NCDO712 and MG1363 cells by electroporation, and transformants harboring either plasmid pED210 or pCI3440 were selected at 30° C. on SR plates supplemented with 5 micro-g/ml chloramphenicol. Transformants harboring either pED210 or pCI3440 were screened for FOA sensitivity by streaking them on SA-glucose plates with 20 micro-g/ml FOA, and incubation overnight at 30° C.

E. coli XL1-Blue = test: Screening for fluoroorotate sensitivity by streaking on ABTG plates; type: cell-based, Escherichia coli
Protocol: QIAGEN™-purified plasmid DNA of pED301 (ysbC), or pDG268 (negative control) was introduced into competent XL1-Blue cells by the heat shock procedure, and transformants harboring plasmid pED301 or pDG268 were selected at 37° C. on LB plates supplemented with 100 micro-g/ml ampicillin. Transformants were screened for fluoroorotate sensitivity by streaking them on ABTG plates without or with 20 micro-g/ml fluoroorotate and incubation overnight at 37° C.

[2] = tested on: B. subtilis HH263 derived strains ED344 and ED348; test: FOA sensitivity by streaking on selective MM plates; type: cell-based, Bacillus subtilis
Protocol: The resulting strains were denoted ED344 (HH263 amyE::pDG268) and ED348 (HH263 amyE::pED301). ED344 and ED348 were streaked on selective MM plates containing 5 micro-g/ml neomycine, one with 20 micro-g/ml FOA, and one without. The screening plates were incubated overnight at 37° C.

SMILES: O=C(O)c1[nH]c(=O)[nH]c(=O)c1F [FOA, 5-fluoroorotate]
- FOA resistance/sensitivity (growth) ([1]; L. lactis strain ED79.1175 (MG1363 ΔpyrDa ΔpyrDb)): resistant
- FOA resistance/sensitivity (growth) ([1]; NCDO712 and MG1363 containing plasmid pED210 (ysbC), 20 micro-g/ml FOA, SA-glucose plates, overnight 30° C.): sensitive
- FOA resistance/sensitivity (growth) ([1]; NCDO712 and MG1363 containing vector pCI3440 (control), 20 micro-g/ml FOA, SA-glucose plates, overnight 30° C.): resistant
- FOA resistance/sensitivity (growth) ([1]; untransformed L. lactis NCDO712 and MG1363): resistant
- FOA resistance/sensitivity (growth) (E. coli XL1-Blue; XL1-Blue harbouring pED301 (ysbC), 20 micro-g/ml fluoroorotate, ABTG plates, overnight 37° C.): sensitive
- FOA resistance/sensitivity (growth) (E. coli XL1-Blue; untransformed E. coli XL1-Blue): resistant
- FOA resistance/sensitivity (growth) ([2]; ED344 (HH263 amyE::pDG268, control), 20 micro-g/ml FOA, MM plates, overnight 37° C.): resistant
- FOA resistance/sensitivity (growth) ([2]; ED348 (HH263 amyE::pED301, ysbC), 20 micro-g/ml FOA, MM plates, overnight 37° C.): sensitive
- FOA resistance/sensitivity (growth) ([2]; untransformed B. subtilis HH263 (168 trpC2)): resistant
